Reference: patent publication US20150038541A1, “COMPOSITION AND METHODS FOR CELL MODULATION” (APOSIGNAL BIOSCIENCE LLC, priority 2012, published 2015)

How the values were obtained:
[1] = tested on: Multiple myeloma cells (RPMI 8226); test: MTS cell viability of multiple myeloma cells treated with bortezomib with or without AS-7; format: cell-based
Method: Multiple myeloma cells (RPMI 8226) were seeded in a 96 well tissue culture plate (2000 cells per well). The compounds, 10 μM AS-7 and bortezomib at the concentrations indicated in […], were added the following day. AS-7 was prepared as described in Example I above. After 48 hours, MTS was added and absorbance was measured at 490 nm. […] Values in FIG. 2 are relative controls that contained only the vehicle in which the drugs were dissolved. Vehicle had no effect on cell viability. Error bars in FIG. 2 are not visible if they are smaller than the symbols.

[2] = tested on: ovarian tumor derived IGROV cells; test: Crystal violet cell viability of ovarian IGROV cells, bortezomib with or without AS-7 (72 hours); format: cell-based; settings: 10 μM AS-7
Method: Ovarian tumor-derived cell lines, IGROV and A2780, were seeded in a 96 well tissue culture plate (2000 cells per well). The compounds, 10 μM AS-7 and bortezomib (BioVision, Inc., Milpitas, Calif.) at the concentrations indicated in the figures, were added the following day. AS-7 was prepared as described in Example I above. […] Values are relative to cells that with the vehicle in which the drugs were dissolved. Vehicle had no effect on cell viability. Error bars in FIG. 6 and FIG. 7 are not shown if they are smaller than the symbols.

159C cells = test: MTS cell viability of breast cancer 159C cells, bortezomib with or without AS-7; format: cell-based; settings: 10 μM AS-7, data not shown
Method: Breast cancer derived cell lines, T47D and 159C, were seeded in a 96 well tissue culture plate (2000 cells per well). The significance of these two lines of breast cancer derived cell lines is that the T47D cells positive for three markers used to optimize the chemotherapeutic treatment, namely HER2 receptor, estrogen receptor, and progesterone receptor. By contrast to the T47D cells, the 159C cells are negative for the three markers. The compounds, 10 μM AS-7 and a range of bortezomib (BioVision, Inc., Milpitas, Calif.) concentrations were added the following day. After 48 hours, MTS was added and absorbance was measured at 490 nm.

HeLa cells [3] = test: Cell proliferation (growth rate, crystal violet) of HeLa cells with AS-7 by itself; format: cell-based, human
Method: Cell lines were plated at a sparse density in order to measure the rate of growth over a several day interval and obviate the effect of limited culture surface on the growth rate. The impact of AS-7 on cell proliferation became clear after two days and was dramatic after several days. While the impact of AS-7 was modest after two days, it became substantial after more than two days because the reduction in growth rate has the greatest impact on cell number after the cultures have expanded by several population doublings. […] AS-7 inhibited the rate of cell proliferation by 67% at a concentration of approximately 10 μM (FIG. 10). […] The following cell lines were used to determine the effect of AS-7 on the rate of proliferation: HeLa, melanoma […], ovarian A2780, and breast T47D. All cell line were grown in culture medium (RPMI 1640 for the breast cancer cells and Dulbecco's modified Eagle's medium for the other cell lines) containing 10% heat inactivated fetal bovine serum without antibiotics (penicillin and streptomycin).

ovarian A2780 cells = test: Cell proliferation (growth rate, crystal violet) of ovarian A2780 cells with AS-7 by itself; format: cell-based, human; settings: 10 μM AS-7, vehicle doubling time 1.0 days
Method: To examine the effect of AS-7 on the growth of several different cell lines, AS-7 at 10 μM was added to the culture medium the day after seeding the cells. The following cell lines were used to determine the effect of AS-7 on the rate of proliferation: HeLa, melanoma A2620, ovarian A2780, and breast T47D. All cell line were grown in culture medium (RPMI 1640 for the breast cancer cells and Dulbecco's modified Eagle's medium for the other cell lines) containing 10% heat inactivated fetal bovine serum without antibiotics (penicillin and streptomycin). […] The doubling times in HeLa, melanoma, ovarian and breast cancer derived cells were 0.9, 2.5, 1.0, and 1.4 days, respectively. AS-7 increased the doubling times of the HeLa, melanoma, ovarian, and breast cancer derived cells by 1.3, 1.3, 1.6, and 3.1 fold, respectively (FIGS. 11 through 14).

HeLa cells [4] = test: FACS analysis after propidium iodide staining (cell cycle, apoptosis) of HeLa cells; format: cell-based, human
Method: FIG. 15 illustrates that AS-7 evokes accumulation HeLa cells in the G0-G1 phase of the cell cycle. HeLa cells were harvested two days after treatment with or without AS-7, stained with propidium iodide and subjected to analysis by FACS (Fluorescence Activated Cell Sorter).
FIG. 17 illustrates that AS-7 blocks exit from the Go-G1 phase of the cell cycle. HeLa cells were treated with nocodazole which evoked accumulation of the cells in the G2-M phase of the cell cycle (Nocodazole Blocked). The cells were released from the nocodazole block and treated with or without AS-7. After 16 hours the cells were stained with propidium iodide and subjected to analysis by FACS (Fluorescence Activated Cell Sorter).
The appearance of essentially all of the AS-7 treated cells was indistinguishable from that of the untreated cells.
A single addition of 10 μM AS-7 for 1 day to 7 or more days was sufficient to evoke accumulation in the Go-G1 phase of the cell cycle (FIGS. 15 and 16) (data not shown). […] HeLa cells were treated with nocodazole (100 ng/ml) for 12 h which evoked accumulation of rounded, loosely attached cells in mitosis. The mitotic cells were harvested and treated with or without 10 μM AS-7 in the absence of nocodazole (Released, 16 hours).

HeLa cells [5] = test: Glucose utilization and acid production in HeLa cell culture medium; format: cell-based, human; settings: 10 μM AS-7, after 5 days
Method: FIG. 19 illustrates that AS-7 increases glucose utilization and acid production in HeLa cells. HeLa cells were cultured (100 mm diameter plates) in medium containing 4.5 mg/ml glucose at pH 7.4. After 5 days medium glucose was determined by standard methodology and the pH of the medium was measured with a pH meter.
Because it was repeatedly observed that AS-7 by itself decreased the pH of the culture medium, it was hypothesized that AS-7 might stimulate glucose utilization and the production of lactic acid, which is a major acidic product of glucose metabolism. HeLa cells were cultured in 100 millimeter diameter tissue culture plates in order to monitor the pH and the glucose concentration of the culture medium. Glucose was quantified with a glucose test strip and meter, as commonly used to monitor fluctuations in blood glucose. A pH meter was used to record the pH of the medium. Control cultures (“Control”) were treated with the appropriate amount of the vehicle used dissolve AS-7. Treated cultures (“AS-7”) incubated with 10 μM AS-7.

proteasome = test: Proteasome activity measured in lysates of treated cells; format: cell-based
From the text: The cytotoxic action of bortezomib is known to be mediated by proteasome inhibition and the induction of apoptosis.

With N#Cc1cccc(C(C(=O)NCC(c2ccccc2)c2ccccc2)N(CCc2c[nH]cn2)C(=O)c2ccccc2C(=O)c2ccccc2)c1 (centres unmarked) [AS-7] the “potentiation of the cytotoxic action of bortezomib (loss of multiple myeloma cell viability)” value ([1]; 10 μM AS-7, 48 hours, MTS) was “markedly potentiates”, the “increased potency of the cytotoxic action of bortezomib upon the addition of AS-7” value ([1]; FIG. 2 as printed (multiple myeloma cells)) was “approximately 3.5 fold” and the “potentiation of the cytotoxic action of bortezomib (loss of cell viability)” value [2] was “markedly potentiates”. The “potentiation of the cytotoxic action of bortezomib” value (159C cells) was “markedly potentiated”, the “rate of growth of HeLa cells” value (HeLa cells [3]; AS-7 alone) was “moderately decreased” and the “cell viability, microscopic observation of the cultures” value (HeLa cells [3]; AS-7 by itself, each of the cancer-derived cell lines tested) was “did not decrease cell viability”. For the same compound, the “inhibition of the rate of cell proliferation” value (HeLa cells [3]; HeLa cells (FIG. 10), approximately 10 μM AS-7) was 67%, the “increase of doubling time” value (HeLa cells [3]; HeLa cells, 10 μM AS-7, vehicle doubling time 0.9 days) was 1.3 fold and the IC50 (HeLa cells [3]; Homo sapiens, HeLa cells (FIG. 10), AS-7 by itself, read-out: IC50 for growth inhibition) was roughly 7 µM. For the same compound, the “increase of doubling time” value (ovarian A2780 cells) was 1.6 fold, the “induction of apoptosis (FACS, propidium iodide)” value (HeLa cells [4]; HeLa cells treated with AS-7 for several days, data not shown) was “failed to induce apoptosis” and the “cell cycle distribution (FACS, propidium iodide)” value (HeLa cells [4]; HeLa cells, 10 μM AS-7) was “evoked the accumulation”. For the same compound, the “cell cycle progression after release from nocodazole block” value (HeLa cells [4]; HeLa cells, 10 μM AS-7, 16 hours after release) was “blocked exit from the G0-G1 phase”, the “glucose concentration of the culture medium relative to control” value (HeLa cells [5]) was “significantly decreased” and the “pH of the culture medium relative to control” value (HeLa cells [5]) was “significantly decreased”. For the same compound, the “effect on proteasome activity” value (proteasome; cells treated with 10 ILIM AS-7 alone for various times) was “no effect” and the “effect of AS-7 on proteasome inhibition by bortezomib” value (proteasome; data not shown) was “did not increase”.
